From US8362031B2, “Lonidamine analogues and treatment of polycystic kidney disease” (University of Kansas, priority 2004, dated 2013)

Test system: Salmonella Typhimurium TA 100
Assay: Ames test for mutagenicity (plate assay, colony count)
Details: 48 hours at 37° C.; for Ames test (+)S9 0.1 mg/pl. / Ames test (+)S9 1 mg/pl. / Ames test (+)S9 10 mg/pl.: (+)S9 mix; for Ames test (−)S9 0.1 mg/pl. / Ames test (−)S9 1 mg/pl. / Ames test (−)S9 10 mg/pl.: (−)S9 mix

COC(=O)c1nn(Cc2ccc(F)cc2F)c2ccc(C(F)(F)F)cc12 [JWS-1-300, 1-(2,4-difluorobenzyl)-5-trifluoromethyl-1H-indazole-3-carboxylic acid methyl ester]
Ames test (+)S9 0.1 mg/pl.: Pass
Ames test (+)S9 1 mg/pl.: Fail
Ames test (+)S9 10 mg/pl.: Fail
Ames test (−)S9 0.1 mg/pl.: Pass
Ames test (−)S9 1 mg/pl.: Fail
Ames test (−)S9 10 mg/pl.: Fail

O=C(O)c1nn(Cc2ccc(F)cc2F)c2ccc(C(F)(F)F)cc12 [JWS-2-1, 1-(2,4-difluorobenzyl)-5-trifluoromethyl-1H-indazole-3-carboxylic acid]
Ames test (+)S9 0.1 mg/pl.: Pass
Ames test (+)S9 1 mg/pl.: Pass
Ames test (+)S9 10 mg/pl.: Pass
Ames test (−)S9 0.1 mg/pl.: Pass
Ames test (−)S9 1 mg/pl.: Mar-
Ames test (−)S9 10 mg/pl.: Fail

O=C(O)c1nn(Cc2ccc(Cl)cc2Cl)c2cnccc12 [JWS-1-132, 1-(2,4-dichlorobenzyl)-1H-pyrazolo[3,4-c]pyridine-3-carboxylic acid]
Ames test (+)S9 0.1 mg/pl.: Pass
Ames test (+)S9 1 mg/pl.: Pass
Ames test (+)S9 10 mg/pl.: Pass
Ames test (−)S9 0.1 mg/pl.: Pass
Ames test (−)S9 1 mg/pl.: Pass
Ames test (−)S9 10 mg/pl.: Pass

O=C(O)/C=C/c1nn(Cc2ccc(Cl)cc2Cl)c2ncccc12 [RC-MC-65, 3-[1-(2,4-dichlorobenzyl)-1H-pyrazolo[3,4-b]pyridine-3-yl]-acrylic acid]
Ames test (+)S9 0.1 mg/pl.: Pass
Ames test (+)S9 1 mg/pl.: Fail
Ames test (+)S9 10 mg/pl.: Fail
Ames test (−)S9 0.1 mg/pl.: Pass
Ames test (−)S9 1 mg/pl.: Fail
Ames test (−)S9 10 mg/pl.: Fail

NNC(=O)c1nn(Cc2ccc(F)cc2F)c2ccc(C(F)(F)F)cc12 [JWS-1-302, 1-(2,4-difluorobenzyl)-5-trifluoromethyl-1H-indazole-3-carboxylic acid hydrazide]
Ames test (+)S9 0.1 mg/pl.: Pass
Ames test (+)S9 1 mg/pl.: Pass
Ames test (+)S9 10 mg/pl.: Fail
Ames test (−)S9 0.1 mg/pl.: Pass
Ames test (−)S9 1 mg/pl.: Pass
Ames test (−)S9 10 mg/pl.: Pass

NNC(=O)c1nn(Cc2ccc(Cl)cc2Cl)c2cc(Cl)ccc12 [DD-MC-II, 6-chloro-1-(2,4-dichlorobenzyl)-1H-indazole-3-carboxylic acid hydrazide]
Ames test (+)S9 0.1 mg/pl.: Pass
Ames test (+)S9 1 mg/pl.: Pass
Ames test (+)S9 10 mg/pl.: Pass
Ames test (−)S9 0.1 mg/pl.: Pass
Ames test (−)S9 1 mg/pl.: Pass
Ames test (−)S9 10 mg/pl.: Pass

O=C(O)/C=C/c1nn(Cc2ccc(F)cc2F)c2ccc(C(F)(F)F)cc12 [JWS-2-10, 3-[1-(2,4-difluorobenzyl)-5-trifluoromethyl-1H-indazol-3-yl]-acrylic acid]
Ames test (+)S9 0.1 mg/pl.: Pass
Ames test (+)S9 1 mg/pl.: Pass
Ames test (+)S9 10 mg/pl.: Pass
Ames test (−)S9 0.1 mg/pl.: Pass
Ames test (−)S9 1 mg/pl.: Pass
Ames test (−)S9 10 mg/pl.: Pass

O=C(O)/C=C/c1nn(Cc2ccc(F)cc2F)c2cc(Cl)ccc12 [JWS-1-298, 3-[1-(2,4-difluorobenzyl)-6-chloro-1H-indazol-3-yl]-acrylic acid]
Ames test (+)S9 0.1 mg/pl.: Pass
Ames test (+)S9 1 mg/pl.: Fail
Ames test (+)S9 10 mg/pl.: Fail
Ames test (−)S9 0.1 mg/pl.: Pass
Ames test (−)S9 1 mg/pl.: Fail
Ames test (−)S9 10 mg/pl.: Fail

COC(=O)c1nn(Cc2ccc(Cl)cc2Cl)c2cc(C(F)(F)F)cnc12 [JWS-1-228, 1-(2,4-dichlorobenzyl)-6-trifluoromethyl-1H-pyrazolo[4,3-b]pyridine-3-carboxylic acid methyl ester]
Ames test (+)S9 0.1 mg/pl.: Pass
Ames test (+)S9 1 mg/pl.: Pass
Ames test (+)S9 10 mg/pl.: Pass
Ames test (−)S9 0.1 mg/pl.: Pass
Ames test (−)S9 1 mg/pl.: Pass
Ames test (−)S9 10 mg/pl.: Pass

NNC(=O)c1nn(Cc2ccc(Cl)cc2Cl)c2cccnc12 [JWS-1-112, 1-(2,4-dichlorobenzyl)-1H-pyrazolo[4,3-b]pyridine-3-carboxylic acid hydrazide]
Ames test (+)S9 0.1 mg/pl.: Pass
Ames test (+)S9 1 mg/pl.: Pass
Ames test (+)S9 10 mg/pl.: Pass
Ames test (−)S9 0.1 mg/pl.: Pass
Ames test (−)S9 1 mg/pl.: Fail
Ames test (−)S9 10 mg/pl.: Fail

O=C(O)c1nn(Cc2ccc(Cl)cc2Cl)c2cc(C(F)(F)F)cnc12 [JWS-1-230, 1-(2,4-dichlorobenzyl)-6-trifluoromethyl-1H-pyrazolo[4,3-b]pyridine-3-carboxylic acid]
Ames test (+)S9 0.1 mg/pl.: Pass
Ames test (+)S9 1 mg/pl.: Pass
Ames test (+)S9 10 mg/pl.: Pass
Ames test (−)S9 0.1 mg/pl.: Pass
Ames test (−)S9 1 mg/pl.: Pass
Ames test (−)S9 10 mg/pl.: Pass

O=C(O)c1nn(Cc2ccc(F)cc2Cl)c2cc(C(F)(F)F)ccc12 [JWS-2-14, 1-(2-chloro-4-fluorobenzyl)-6-trifluoromethyl-1H-indazole-3-carboxylic acid]
Ames test (+)S9 0.1 mg/pl.: Pass
Ames test (+)S9 1 mg/pl.: Pass
Ames test (+)S9 10 mg/pl.: Fail
Ames test (−)S9 0.1 mg/pl.: Pass
Ames test (−)S9 1 mg/pl.: Fail
Ames test (−)S9 10 mg/pl.: Fail

NNC(=O)/C=C/c1nn(Cc2ccc(Cl)cc2Cl)c2cc(C(F)(F)F)ccc12 [RC-MC-205, 3-[1-(2,4-dichlorobenzyl)-6-trifluoromethyl-1H-indazol-3-yl]-acrylic acid hydrazide]
Ames test (+)S9 0.1 mg/pl.: Pass
Ames test (+)S9 1 mg/pl.: Fail
Ames test (+)S9 10 mg/pl.: Fail
Ames test (−)S9 0.1 mg/pl.: Pass
Ames test (−)S9 1 mg/pl.: Fail
Ames test (−)S9 10 mg/pl.: Mar-

O=C(O)c1nn(Cc2ccc(F)cc2F)c2cc(Cl)ccc12 [JWS-1-284, 1-(2,4-difluorobenzyl)-6-chloro-1H-indazole-3-carboxylic acid]
Ames test (+)S9 0.1 mg/pl.: Pass
Ames test (+)S9 1 mg/pl.: Fail
Ames test (+)S9 10 mg/pl.: Fail
Ames test (−)S9 0.1 mg/pl.: Pass
Ames test (−)S9 1 mg/pl.: Fail
Ames test (−)S9 10 mg/pl.: Fail

NNC(=O)c1nn(Cc2ccc(Cl)cc2Cl)c2cc(C(F)(F)F)cnc12 [JWS-1-232, 1-(2,4-dichlorobenzyl)-6-trifluoromethyl-1H-pyrazolo[4,3-b]pyridine-3-carboxylic acid hydrazide]
Ames test (+)S9 0.1 mg/pl.: Pass
Ames test (+)S9 1 mg/pl.: Pass
Ames test (+)S9 10 mg/pl.: Pass
Ames test (−)S9 0.1 mg/pl.: Pass
Ames test (−)S9 1 mg/pl.: Pass
Ames test (−)S9 10 mg/pl.: Pass

NNC(=O)c1nn(Cc2ccc(Cl)cc2Cl)c2ccc(C(F)(F)F)cc12 [JWS-1-258, 1-(2,4-dichlorobenzyl)-5-trifluoromethyl-1H-indazole-3-carboxylic acid hydrazide]
Ames test (+)S9 0.1 mg/pl.: Pass
Ames test (+)S9 1 mg/pl.: Pass
Ames test (+)S9 10 mg/pl.: Pass
Ames test (−)S9 0.1 mg/pl.: Pass
Ames test (−)S9 1 mg/pl.: Pass
Ames test (−)S9 10 mg/pl.: Pass

O=C(O)/C=C/c1nn(Cc2ccc(F)cc2Cl)c2cc(Cl)ccc12 [JWS-2-36, 3-[1-(2-chloro, 4-fluorobenzyl)-6-chloro-1H-indazol-3-yl]-acrylic acid]
Ames test (+)S9 0.1 mg/pl.: Pass
Ames test (+)S9 1 mg/pl.: Pass
Ames test (+)S9 10 mg/pl.: Pass
Ames test (−)S9 0.1 mg/pl.: Pass
Ames test (−)S9 1 mg/pl.: Fail
Ames test (−)S9 10 mg/pl.: Pass

O=C(O)c1nn(Cc2ccc(Cl)cc2Cl)c2ccc(C(F)(F)F)cc12 [JWS-1-260, 1-(2,4-dichlorobenzyl)-5-trifluoromethyl-1H-indazole-3-carboxylic acid]
Ames test (+)S9 0.1 mg/pl.: Pass
Ames test (+)S9 1 mg/pl.: Pass
Ames test (+)S9 10 mg/pl.: Pass
Ames test (−)S9 0.1 mg/pl.: Pass
Ames test (−)S9 1 mg/pl.: Pass
Ames test (−)S9 10 mg/pl.: Pass

COC(=O)c1nn(Cc2ccc(F)cc2Cl)c2cc(Cl)ccc12 [JWS-2-18, 1-(2-chloro-4-fluorobenzyl)-6-chloro-1H-indazole-3-carboxylic acid methyl ester]
Ames test (+)S9 0.1 mg/pl.: Pass
Ames test (+)S9 1 mg/pl.: Fail
Ames test (+)S9 10 mg/pl.: Fail
Ames test (−)S9 0.1 mg/pl.: Pass
Ames test (−)S9 1 mg/pl.: Pass
Ames test (−)S9 10 mg/pl.: Mar-

COC(=O)C=Cc1nn(Cc2ccc(Cl)cc2Cl)c2cc(C(F)(F)F)ccc12 [RC-MC-200]
Ames test (+)S9 0.1 mg/pl.: Pass
Ames test (+)S9 1 mg/pl.: Fail
Ames test (+)S9 10 mg/pl.: Fail
Ames test (−)S9 0.1 mg/pl.: Pass
Ames test (−)S9 1 mg/pl.: Pass
Ames test (−)S9 10 mg/pl.: Pass
